Results: ChEMBL document CHEMBL3232714, “Antiparasitic chaiyaphumines from entomopathogenic Xenorhabdus sp. PB61.4” (J Nat Prod, 2014)
The source made the active and inactive calls. No cut-off for these calls is given here.

Legend:
[1] = tested on: Trypanosoma brucei rhodesiense; assay: Antitrypanosomal activity against bloodstream forms of Trypanosoma brucei rhodesiense STIB900; format: functional, organism-based
Trypanosoma cruzi = assay: Antitrypanosomal activity against trypomastigote forms of Trypanosoma cruzi Tulahuen C4; format: functional, organism-based
Plasmodium falciparum = assay: Antiplasmodial activity against erythrocytic stages of Plasmodium falciparum NF54; format: functional, organism-based
L6 = assay: Cytotoxicity against rat L6 cells; format: cell-based
[2] = Selectivity index, ratio of IC50 for rat L6 cells to IC50 for erythrocytic stages of Plasmodium falciparum NF54; format: toxicity, cell-based; conditions: read-out: Ratio IC50
Escherichia coli = assay: Antibacterial activity against Escherichia coli DH10B by agar diffusion assay; format: functional; conditions: K-12 substr. DH10B
Bacillus subtilis = assay: Antibacterial activity against Bacillus subtilis by agar diffusion assay; format: functional, organism-based
Micrococcus luteus = assay: Antibacterial activity against Micrococcus luteus by agar diffusion assay; format: functional, organism-based
Saccharomyces cerevisiae = assay: […] activity against Saccharomyces cerevisiae by agar diffusion assay; format: functional, organism-based

Row | IC50 [1] [µM] | IC50 (Trypanosoma cruzi) [µM] | IC50 (Plasmodium falciparum) [µM] | SMILES | IC50 (L6) [µM] | selectivity ratio [2] | Activity (Escherichia coli) | Activity (Bacillus subtilis) | Activity (Micrococcus luteus) | Activity (Saccharomyces cerevisiae)
1 | 5.11 | 56.4 | 0.61 | C[C@H]1NC(=O)[C@@H](Cc2ccccc2)NC(=O)[C@@H](NC(=O)Cc2ccccc2)[C@@H](C)OC(=O)[C@H](Cc2c[nH]c3ccccc23)NC(=O)[C@@H]2CCCN2C1=O | 92.2 | > 151 | inactive | inactive | inactive | inactive
2 | 77.6 | 98.9 | 15.4 | CCC(=O)N[C@@H]1C(=O)N[C@H](Cc2ccccc2)C(=O)N[C@H](C)C(=O)N2CCC[C@H]2C(=O)N[C@@H](Cc2c[nH]c3ccccc23)C(=O)O[C@@H]1C | > 151 |  | inactive | inactive | inactive | inactive

Row | SMILES | IC50 [1] [µM] | IC50 (Trypanosoma cruzi) [µM] | IC50 (Plasmodium falciparum) [µM] | IC50 (L6) [µM] | selectivity ratio [2] | Activity (Escherichia coli) | Activity (Bacillus subtilis) | Activity (Micrococcus luteus) | Activity (Saccharomyces cerevisiae)
3 | O=C(Cn1ccnc1[N+](=O)[O-])NCc1ccccc1 [BENZNIDAZOLE] |  | 1.73 |  |  |  |  |  |  | 
